Measured values: PubChem BioAssay AID1549 (Sanford-Burnham Center for Chemical Genomics, 2009)
Active and inactive are the calls of the source. The rule behind the calls is not given here.

Target: Influenza A virus M2 proton channel (A/TW/4845/1999 H1N1)
Assay: M2 proton channel binding, NMR based, influenza A virus H1N1 strain (AID 1549)
Details: NMR binding screen, M2 protein

| Structure (SMILES) | Kd |
| --- | --- |
| Cc1nn(C)c(C)c1NC(=S)NC1CCCC1 | > 4 mM (inactive) |
| N#Cc1sc2nc3c(c(-c4cccnc4)c2c1N)CCC3 | > 4 mM (inactive) |
| O=C(O)CS(=O)(=O)c1ccccc1 | > 4 mM (inactive) |
| COc1cc2nc(N3CCNCC3)nc(N)c2cc1OC | > 4 mM (inactive) |
| O=C1NC(=S)N/C1=C/c1ccsc1 | > 4 mM (inactive) |
| Cn1cc(Cl)c(C(=O)NC2CCCC2)n1 | > 4 mM (inactive) |
| NC(=O)CSc1ccc2nnc(-c3ccccc3)n2n1 | > 4 mM (inactive) |
| CNC(=O)C(=O)Nc1c(C)cccc1C | > 4 mM (inactive) |
| COc1cccc(-c2nc(-c3ccccn3)no2)c1OC | > 4 mM (inactive) |
| O=C1C2CCCCC2C(=O)N1c1ccc(O)cc1 (stereo not drawn) | > 4 mM (inactive) |
| OCc1ccc(N2CCOCC2)nc1 | > 4 mM (inactive) |
| S=c1ccc(N2CCCCC2)n[nH]1 | > 4 mM (inactive) |
| NC(=O)CC[C@H](N)C(=O)O | > 4 mM (inactive) |
| O=C(NCc1ccccn1)c1ccccc1Cl | > 4 mM (inactive) |
| Cc1cc(C)n(C2CCS(=O)(=O)C2)n1 (stereo not drawn) | > 4 mM (inactive) |
| CC1CCN(C(=O)c2ccc(NS(C)(=O)=O)cc2)CC1 | > 4 mM (inactive) |
| OCCNC(=S)Nc1ccc(F)cc1 | > 4 mM (inactive) |
| CCNS(=O)(=O)c1ccc(OC)c(C)c1 | > 4 mM (inactive) |
| Nc1cc(=O)[nH]c(=S)n1-c1cccc(C(F)(F)F)c1 | > 4 mM (inactive) |
| O=c1c2c(nc3nc(Cc4ccccc4)[nH]n13)CCC2 | > 4 mM (inactive) |
| Cn1ccnc1C(O)c1ccccc1 (stereo not drawn) | > 4 mM (inactive) |
| OC12C=CC(CC1)CC2 | > 4 mM (inactive) |
| O=c1c2ccccc2[nH]c2ncccc12 | > 4 mM (inactive) |
| O=CN1CCN(C(=O)c2ccco2)CC1 | > 4 mM (inactive) |
| C[C@H]1CCCC(=O)CCC/C=C/c2cc(O)cc(O)c2C(=O)O1 | > 4 mM (inactive) |

| Structure (SMILES) | Kd |
| --- | --- |
| O=C(Nc1ccccn1)C(=O)N1CCCC1 | > 4 mM (inactive) |
| CC(C)Oc1ccc(NC(N)=O)cc1 | > 4 mM (inactive) |
| Cc1cc(=O)oc2cc3c(cc12)OCCO3 | > 4 mM (inactive) |
| C[C@@H]1OC(O[C@H]2C(O[C@H]3CC[C@@]4(C)C(CC[C@]5(C)C4CC=C4C6CC(C)(C)CC[C@]6(C(=O)O)CC[C@]45C)[C@]3(C)CO)OC[C@H](O)[C@@H]2O)[C@H](O)[C@H](O)[C@H]1O (stereo partly drawn) | > 4 mM (inactive) |
| CCOc1ccc(C(=O)c2ccc(OC)c(O)c2O)cc1 | > 4 mM (inactive) |
| COC1C=CC23c4cc5c(cc4CN(CC2O)[C@@H]3C1)OCO5 (stereo partly drawn) | > 4 mM (inactive) |
| CCc1noc(C)c1C(=O)N1CCOCC1 | > 4 mM (inactive) |
| NC(=O)c1ccsc1N | > 4 mM (inactive) |
| O=C1c2ccccc2C(=O)c2c(O)c(O)cc(O)c21 | > 4 mM (inactive) |
| CN1C2CC[C@@H]1CC(OC(=O)[C@H](CO)c1ccccc1)C2 (stereo partly drawn) | > 4 mM (inactive) |
| CC(=O)Nc1ccc(Cl)c(C(N)=O)c1 | > 4 mM (inactive) |
| O=C(Nc1nncs1)c1c(F)cccc1F | > 4 mM (inactive) |
| COc1c(O)cc2oc3cc(O)c(CC=C(C)C)c(O)c3c(=O)c2c1CC=C(C)C | > 4 mM (inactive) |
| CCOC(=O)c1ccc(Oc2ccc(C)nn2)cc1 | > 4 mM (inactive) |
| COC(=O)Cn1c2ccccc2c2nc(C)sc21 | > 4 mM (inactive) |
| O=C(O)C1CSC2(CCCCC2)N1 (stereo not drawn) | > 4 mM (inactive) |
| O=C(O)C1C(=O)NCC1c1ccccc1 (stereo not drawn) | > 4 mM (inactive) |
| O=C(Nc1nncs1)c1c(F)c(F)c(F)c(F)c1F | > 4 mM (inactive) |
| Cn1cccc1C(=S)N1CCOCC1 | > 4 mM (inactive) |
| COCc1cc(=O)oc2cc(O)c(Cl)cc12 | > 4 mM (inactive) |
| CON(C)C(=O)Nc1ccc(Cl)cc1 | > 4 mM (inactive) |
| Cc1ccc(NC(=O)C2CCCNC2=O)nc1 (stereo not drawn) | > 4 mM (inactive) |
| CCNS(=O)(=O)c1cc(Br)ccc1OC | > 4 mM (inactive) |
| CC(=O)c1cc(C(N)=O)c(=S)[nH]c1C | > 4 mM (inactive) |
| COC(=O)[C@H]1[C@H]2C[C@H]3c4[nH]c5ccccc5c4CCN3C[C@H]2CC[C@@H]1O | > 4 mM (inactive) |

| Structure (SMILES) | Kd |
| --- | --- |
| CN(C)c1ccc(/C=C2/NC(=S)NC2=O)cc1 | > 4 mM (inactive) |
| NC(c1ccccc1)c1ccccn1 (stereo not drawn) | > 4 mM (inactive) |
| COc1cc(S(=O)(=O)N(C)C)ccc1F | > 4 mM (inactive) |
| Fc1ccc(Br)cc1/C=N/n1cnnc1 | > 4 mM (inactive) |
| O=C(CC1NCCNC1=O)Nc1ccccc1 (stereo not drawn) | > 4 mM (inactive) |
| CCC[C@@H]1CCCCN1 | > 4 mM (inactive) |
| COc1c2c(cc3cc[n+](C)cc13)OCO2 | > 4 mM (inactive) |
| CC1NC(C(=O)O)Cc2c1[nH]c1ccccc21 (stereo not drawn) | > 4 mM (inactive) |
| CC(C)=CCc1c(O)cc2oc(C)cc(=O)c2c1O | > 4 mM (inactive) |
| O=C(c1cccc(-n2cnnn2)c1)N1CCOCC1 | > 4 mM (inactive) |
| Cc1ccc(/C=N/n2c(C)nnc2C)cc1 | > 4 mM (inactive) |
| O=C(CNC(=O)c1cccs1)NC1=NCCS1 | > 4 mM (inactive) |
| CCOC(=O)Cc1nc2ccccc2[nH]1 | > 4 mM (inactive) |
| O=P(O)(Cc1ccccc1)c1ccccc1 | > 4 mM (inactive) |
| CC1CCC2(OC1)OC1CC3C4CC[C@H]5C[C@@H](O)CC[C@]5(C)C4CC(=O)[C@]3(C)C1C2C (stereo partly drawn) | > 4 mM (inactive) |
| CCN=Cc1c(O)n(-c2ccccc2C)c(=O)[nH]c1=O | > 4 mM (inactive) |
| COc1cc([C@@H]2c3cc4c(c(O)c3C[C@H]3COC(=O)[C@@H]32)OCO4)cc(OC)c1OC | > 4 mM (inactive) |
| Cc1ccc(/C=C/C(=O)O)cc1S(=O)(=O)NCCO | > 4 mM (inactive) |
| COCC(=O)Nc1cccc(Br)c1 | > 4 mM (inactive) |
| NC1=NN(c2ccccc2)C(=O)C1 | > 4 mM (inactive) |
| OCc1ccc(-c2ccccn2)s1 | > 4 mM (inactive) |
| O=C(Nc1ccc(N2CCOCC2)cc1)c1cnsn1 | > 4 mM (inactive) |
| COc1cccc2c1CCC1=CC(=O)CC[C@@]12C | > 4 mM (inactive) |
| Cc1ccc(SCc2nc(-c3cccnc3)no2)cc1 | > 4 mM (inactive) |
| Cc1cc(NC(=O)CS(=O)(=O)c2ccccc2)no1 | > 4 mM (inactive) |

| Structure (SMILES) | Kd |
| --- | --- |
| COc1cccc(=O)c2c(C)n(C)c(C)c12 | > 4 mM (inactive) |
| CC(CC(=O)NN)C1(O)CCCCC1 (stereo not drawn) | > 4 mM (inactive) |
| CC1=NNC(=O)C1CCc1ccncc1 (stereo not drawn) | > 4 mM (inactive) |
| CNC(=O)Nc1cccc(C(F)(F)F)c1 | > 4 mM (inactive) |
| COC(=O)N(c1ccccc1)P1(=S)OCCO1 | > 4 mM (inactive) |
| Cc1n[nH]c(=O)nc1N1CCN(c2ccccc2)CC1 | > 4 mM (inactive) |
| Cc1nn2c(=O)/c(=C/c3cccc(F)c3)sc2nc1=O | > 4 mM (inactive) |
| COc1cc2ccc(=O)oc2c(OC)c1OC | > 4 mM (inactive) |
| CSc1ncnc2nc[nH]c12 | > 4 mM (inactive) |
| CCc1c(C)n([O-])c2c([n+]1=O)CCC2 | > 4 mM (inactive) |
| NC1C2CC3CC1CC(O)(C3)C2 (stereo not drawn) | > 4 mM (inactive) |
| COC(=O)c1noc(C)c1C(C)=O | > 4 mM (inactive) |
| CN1CCN(c2ncnc3nc[nH]c23)CC1 | > 4 mM (inactive) |
| O=C1C2C3C=CC(C3)C2C(=O)N1c1cccnc1 (stereo not drawn) | > 4 mM (inactive) |
| Cc1ccc2c(c1)CCCN2C(=O)c1c(C)noc1C | > 4 mM (inactive) |
| NCCC(=O)N[C@@H](Cc1cnc[nH]1)C(=O)O | > 4 mM (inactive) |
| O=C(Nc1ccccc1)Nc1ccccn1 | > 4 mM (inactive) |
| O=c1ccc2ccccc2o1 | > 4 mM (inactive) |
| Cc1nnsc1C(=O)Nc1ccccn1 | > 4 mM (inactive) |
| Cn1c2ccccc2n2c(=S)[nH]nc12 | > 4 mM (inactive) |
| COc1ccc2c(CC(=O)O)coc2c1 | > 4 mM (inactive) |
| NC(C(=O)O)C(O)C(=O)O (stereo not drawn) | > 4 mM (inactive) |
| Cn1c(=O)cc(O)c2ccccc21 | > 4 mM (inactive) |
| O=C(O[C@@H]1Cc2c(O)cc(O)cc2O[C@@H]1c1ccc(O)c(O)c1)c1cc(O)c(O)c(O)c1 | > 4 mM (inactive) |
| OCc1ccc(-n2ccnc2)cc1 | > 4 mM (inactive) |

| Structure (SMILES) | Kd |
| --- | --- |
| O=C(Nc1ccc(Cl)cc1)N1CCCC1 | > 4 mM (inactive) |
| OC1COCc2nc3ccccc3n2C1 (stereo not drawn) | > 4 mM (inactive) |
| Cc1cc[n+](-c2nc([O-])sc2C=O)cc1 | > 4 mM (inactive) |
| Cc1cc(O)c(C=O)c(O)c1C(=O)O | > 4 mM (inactive) |
| CC1(C)N=C2C(=N)C=CC=C2N1O | > 4 mM (inactive) |
| COc1ccc2c(c1)CCCN2C(N)=O | > 4 mM (inactive) |
| Cc1nc2c(=O)[nH]c3ccccc3c2o1 | > 4 mM (inactive) |
| Cc1ccc2c(C)c(C(=O)Nc3nnc(C)s3)oc2c1 | > 4 mM (inactive) |
| COC(=O)C1=C(C)N(Cc2ccco2)C(=O)C1 | > 4 mM (inactive) |
| Cc1[nH]c2ccccc2c1Cc1n[nH]c(=S)n1C | > 4 mM (inactive) |
| CC1(C)C=Cc2cc3ccc(=O)oc3cc2O1 | > 4 mM (inactive) |
| OC[C@H]1O[C@@H](Oc2ccc(O)cc2)[C@H](O)[C@@H](O)[C@@H]1O | > 4 mM (inactive) |
| CC(=O)Nc1ccc(CN2CCOCC2)cc1 | > 4 mM (inactive) |
| Nc1nc(-c2cccnc2)nn1C(=O)Cc1ccccc1 | > 4 mM (inactive) |
| CC(=O)NC(=S)Nc1ccccc1N1CCOCC1 | > 4 mM (inactive) |
| CC(C)CNc1cc(=O)n(C)c(=O)n1C | > 4 mM (inactive) |
| O=C1CCC(=O)N1CN1CCOCC1 | > 4 mM (inactive) |
| COc1ccc(Cc2nnc3c4cnn(C)c4ncn23)cc1 | > 4 mM (inactive) |
| c1ccc(C[N+]23CCN(CC2)CC3)cc1 | > 4 mM (inactive) |
| CN(C)c1nc(N)nc(Cn2ccnc2)n1 | > 4 mM (inactive) |
| Cc1ccc(-c2nc(-c3cccnc3)no2)cc1 | > 4 mM (inactive) |
| CN(C)c1ccc(N2C(=O)CCC2=O)cc1 | > 4 mM (inactive) |
| Cc1cccc(C(C)C)c1NC(=O)c1cccnc1 | > 4 mM (inactive) |
